Legend:
Androgen receptor = target: T1, Androgen receptor (Homo sapiens, UniProt P10275)
T1 sequence (P10275 whole entry): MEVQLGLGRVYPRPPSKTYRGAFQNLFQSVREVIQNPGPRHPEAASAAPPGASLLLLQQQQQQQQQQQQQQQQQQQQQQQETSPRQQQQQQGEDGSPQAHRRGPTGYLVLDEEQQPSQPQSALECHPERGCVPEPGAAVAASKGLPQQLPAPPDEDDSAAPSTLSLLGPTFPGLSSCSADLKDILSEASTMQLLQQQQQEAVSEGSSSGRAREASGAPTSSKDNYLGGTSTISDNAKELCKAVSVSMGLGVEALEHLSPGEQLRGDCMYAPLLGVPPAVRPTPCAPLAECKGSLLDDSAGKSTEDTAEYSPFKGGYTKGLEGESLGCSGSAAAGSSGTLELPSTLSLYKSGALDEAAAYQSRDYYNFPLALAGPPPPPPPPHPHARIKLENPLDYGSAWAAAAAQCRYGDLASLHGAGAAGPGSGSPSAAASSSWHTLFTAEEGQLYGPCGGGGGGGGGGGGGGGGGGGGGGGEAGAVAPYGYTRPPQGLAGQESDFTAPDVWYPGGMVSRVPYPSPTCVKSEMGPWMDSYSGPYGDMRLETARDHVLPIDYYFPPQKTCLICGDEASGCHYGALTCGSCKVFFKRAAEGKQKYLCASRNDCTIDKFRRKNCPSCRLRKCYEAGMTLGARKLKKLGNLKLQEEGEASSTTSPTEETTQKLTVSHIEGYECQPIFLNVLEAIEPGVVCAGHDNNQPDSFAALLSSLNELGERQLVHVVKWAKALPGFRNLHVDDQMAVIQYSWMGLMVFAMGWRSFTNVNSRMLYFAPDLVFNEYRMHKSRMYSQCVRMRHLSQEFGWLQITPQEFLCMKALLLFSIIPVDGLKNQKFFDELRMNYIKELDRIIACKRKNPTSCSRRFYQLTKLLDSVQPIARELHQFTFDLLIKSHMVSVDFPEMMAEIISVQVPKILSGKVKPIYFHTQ

[1] = target: T2, Muscarinic acetylcholine receptor M1 (Homo sapiens, UniProt P11229); type: functional, cell-based
T2 sequence (P11229 whole entry): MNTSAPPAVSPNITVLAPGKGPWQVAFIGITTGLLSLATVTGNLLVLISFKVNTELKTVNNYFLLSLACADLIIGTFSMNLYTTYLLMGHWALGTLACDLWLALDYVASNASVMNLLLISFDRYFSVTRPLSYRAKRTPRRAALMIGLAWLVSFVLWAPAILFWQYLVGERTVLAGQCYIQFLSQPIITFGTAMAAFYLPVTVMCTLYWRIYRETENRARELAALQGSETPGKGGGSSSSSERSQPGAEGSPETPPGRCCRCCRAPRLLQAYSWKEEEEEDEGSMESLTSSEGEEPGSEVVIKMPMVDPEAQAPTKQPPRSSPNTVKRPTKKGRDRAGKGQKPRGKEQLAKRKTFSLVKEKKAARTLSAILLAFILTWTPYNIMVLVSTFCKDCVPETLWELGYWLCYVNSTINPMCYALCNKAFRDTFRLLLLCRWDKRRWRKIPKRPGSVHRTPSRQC

D(3) dopamine receptor = D(3) dopamine receptor (Homo sapiens, UniProt P35462)
Estrogen receptor = target: T3, Estrogen receptor (Homo sapiens, UniProt P03372)
T3 sequence (P03372 whole entry): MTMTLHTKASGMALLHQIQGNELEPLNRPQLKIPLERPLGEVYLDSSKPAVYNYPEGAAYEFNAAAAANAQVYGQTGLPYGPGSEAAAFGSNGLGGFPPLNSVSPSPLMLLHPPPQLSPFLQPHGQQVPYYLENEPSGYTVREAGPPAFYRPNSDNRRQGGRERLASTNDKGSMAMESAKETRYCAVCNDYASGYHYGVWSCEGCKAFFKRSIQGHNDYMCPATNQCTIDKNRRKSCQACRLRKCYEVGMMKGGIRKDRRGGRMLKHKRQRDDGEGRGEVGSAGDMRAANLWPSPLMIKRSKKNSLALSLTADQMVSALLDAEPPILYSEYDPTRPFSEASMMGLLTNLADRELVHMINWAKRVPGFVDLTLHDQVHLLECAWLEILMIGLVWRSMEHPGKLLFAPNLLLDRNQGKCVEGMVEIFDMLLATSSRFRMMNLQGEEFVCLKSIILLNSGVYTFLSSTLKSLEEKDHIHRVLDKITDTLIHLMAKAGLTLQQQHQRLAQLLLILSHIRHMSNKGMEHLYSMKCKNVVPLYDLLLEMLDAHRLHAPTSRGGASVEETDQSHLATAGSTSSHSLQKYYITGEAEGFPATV

[2] = target: Gamma-aminobutyric acid receptor subunit alpha-1/alpha-2/beta-2/gamma-2 (Homo sapiens, UniProt P14867+P18507+P47869+P47870); type: protein-complex assay
[3] = target: T4, 5-hydroxytryptamine receptor 1A (Homo sapiens, UniProt P08908)
T4 sequence (P08908 whole entry): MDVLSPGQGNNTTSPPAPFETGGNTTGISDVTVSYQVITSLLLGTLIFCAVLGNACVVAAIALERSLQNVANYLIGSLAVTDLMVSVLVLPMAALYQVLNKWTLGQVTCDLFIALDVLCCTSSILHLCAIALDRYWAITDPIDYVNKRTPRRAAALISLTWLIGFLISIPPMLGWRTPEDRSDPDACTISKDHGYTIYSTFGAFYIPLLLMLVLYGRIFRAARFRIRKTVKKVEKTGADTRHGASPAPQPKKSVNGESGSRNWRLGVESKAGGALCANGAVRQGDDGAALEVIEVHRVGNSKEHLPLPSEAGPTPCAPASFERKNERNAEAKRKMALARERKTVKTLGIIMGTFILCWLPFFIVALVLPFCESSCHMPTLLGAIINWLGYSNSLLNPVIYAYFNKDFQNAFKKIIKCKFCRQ

[4] = target: 5-hydroxytryptamine receptor 2B (Homo sapiens, UniProt P41595); type: functional, cell-based
[5] = target: Sodium-dependent serotonin transporter (Homo sapiens, UniProt P31645)
[6] = target: Gamma-aminobutyric acid receptor subunit alpha-1 (Rattus norvegicus, UniProt P62813)
Note: assay procedure not described here.

Chain of Sodium-dependent serotonin transporter (P31645 whole entry): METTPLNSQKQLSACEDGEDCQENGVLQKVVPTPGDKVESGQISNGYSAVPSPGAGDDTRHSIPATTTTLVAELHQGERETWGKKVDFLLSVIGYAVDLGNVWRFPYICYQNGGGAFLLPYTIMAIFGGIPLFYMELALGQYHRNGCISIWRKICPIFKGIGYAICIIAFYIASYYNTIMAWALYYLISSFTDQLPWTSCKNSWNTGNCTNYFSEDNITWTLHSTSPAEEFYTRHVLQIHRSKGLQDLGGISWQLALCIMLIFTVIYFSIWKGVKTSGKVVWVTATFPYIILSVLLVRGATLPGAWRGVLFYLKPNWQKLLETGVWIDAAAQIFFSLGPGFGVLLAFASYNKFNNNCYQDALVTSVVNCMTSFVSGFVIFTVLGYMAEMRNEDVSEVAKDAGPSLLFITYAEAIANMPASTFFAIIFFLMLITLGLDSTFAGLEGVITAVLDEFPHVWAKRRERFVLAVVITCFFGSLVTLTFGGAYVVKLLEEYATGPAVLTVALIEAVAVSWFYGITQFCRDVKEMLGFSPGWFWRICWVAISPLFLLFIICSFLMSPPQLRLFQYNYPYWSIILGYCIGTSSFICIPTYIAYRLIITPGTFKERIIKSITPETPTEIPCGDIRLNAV
Chain of 5-hydroxytryptamine receptor 2B (P41595 whole entry): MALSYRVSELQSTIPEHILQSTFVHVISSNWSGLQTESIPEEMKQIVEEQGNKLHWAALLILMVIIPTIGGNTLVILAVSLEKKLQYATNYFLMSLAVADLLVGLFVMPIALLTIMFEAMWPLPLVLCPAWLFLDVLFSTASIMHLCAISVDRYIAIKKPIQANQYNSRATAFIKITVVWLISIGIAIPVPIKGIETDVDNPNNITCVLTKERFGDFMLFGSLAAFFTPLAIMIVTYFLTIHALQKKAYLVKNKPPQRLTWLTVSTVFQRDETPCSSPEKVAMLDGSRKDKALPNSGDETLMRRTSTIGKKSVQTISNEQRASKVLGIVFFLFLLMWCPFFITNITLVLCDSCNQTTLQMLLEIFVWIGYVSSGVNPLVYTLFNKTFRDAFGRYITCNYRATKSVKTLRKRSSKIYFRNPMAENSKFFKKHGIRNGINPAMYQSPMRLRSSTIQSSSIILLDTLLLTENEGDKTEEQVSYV
Chain of Gamma-aminobutyric acid receptor subunit alpha-1/alpha-2/beta-2/gamma-2 (P14867 whole entry): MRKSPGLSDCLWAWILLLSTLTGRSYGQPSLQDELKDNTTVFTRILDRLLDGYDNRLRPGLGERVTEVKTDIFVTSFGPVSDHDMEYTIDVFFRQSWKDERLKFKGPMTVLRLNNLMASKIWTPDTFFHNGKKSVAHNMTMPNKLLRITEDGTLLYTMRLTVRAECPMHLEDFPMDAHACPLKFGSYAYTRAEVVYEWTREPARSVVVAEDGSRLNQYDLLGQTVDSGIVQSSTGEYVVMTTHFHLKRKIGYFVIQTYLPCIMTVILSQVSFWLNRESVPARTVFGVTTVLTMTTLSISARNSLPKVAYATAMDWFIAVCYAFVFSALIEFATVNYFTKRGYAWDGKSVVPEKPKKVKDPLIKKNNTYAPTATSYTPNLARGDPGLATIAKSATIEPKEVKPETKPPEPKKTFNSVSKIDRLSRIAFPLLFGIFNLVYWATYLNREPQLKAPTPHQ
Chain of Gamma-aminobutyric acid receptor subunit alpha-1/alpha-2/beta-2/gamma-2 (P47870 whole entry): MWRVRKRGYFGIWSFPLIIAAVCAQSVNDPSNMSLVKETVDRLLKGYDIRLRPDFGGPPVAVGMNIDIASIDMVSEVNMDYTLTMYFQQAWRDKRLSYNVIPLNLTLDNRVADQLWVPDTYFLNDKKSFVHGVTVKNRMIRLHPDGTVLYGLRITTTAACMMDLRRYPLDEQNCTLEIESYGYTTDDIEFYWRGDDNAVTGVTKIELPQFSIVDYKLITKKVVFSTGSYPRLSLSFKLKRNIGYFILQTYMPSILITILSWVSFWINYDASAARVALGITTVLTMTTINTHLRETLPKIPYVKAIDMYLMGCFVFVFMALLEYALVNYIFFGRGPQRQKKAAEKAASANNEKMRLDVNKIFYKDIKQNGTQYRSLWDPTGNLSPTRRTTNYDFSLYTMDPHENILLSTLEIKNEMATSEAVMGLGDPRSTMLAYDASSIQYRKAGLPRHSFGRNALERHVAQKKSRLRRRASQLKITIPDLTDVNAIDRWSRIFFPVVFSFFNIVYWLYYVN
Chain of Gamma-aminobutyric acid receptor subunit alpha-1/alpha-2/beta-2/gamma-2 (P18507 whole entry): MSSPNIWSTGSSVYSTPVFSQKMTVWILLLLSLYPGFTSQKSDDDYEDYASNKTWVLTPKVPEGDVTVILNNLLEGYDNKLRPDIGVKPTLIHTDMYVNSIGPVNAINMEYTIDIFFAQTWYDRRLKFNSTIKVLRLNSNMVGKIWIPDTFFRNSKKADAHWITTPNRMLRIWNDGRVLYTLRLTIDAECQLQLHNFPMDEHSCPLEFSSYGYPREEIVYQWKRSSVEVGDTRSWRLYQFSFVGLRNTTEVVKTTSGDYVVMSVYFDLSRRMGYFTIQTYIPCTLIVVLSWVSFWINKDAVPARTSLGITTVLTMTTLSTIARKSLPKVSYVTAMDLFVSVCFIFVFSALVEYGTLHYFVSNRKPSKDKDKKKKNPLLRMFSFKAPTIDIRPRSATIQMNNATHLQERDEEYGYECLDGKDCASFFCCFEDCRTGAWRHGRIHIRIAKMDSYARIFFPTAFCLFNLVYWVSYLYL
Chain of Gamma-aminobutyric acid receptor subunit alpha-1/alpha-2/beta-2/gamma-2 (P47869 whole entry): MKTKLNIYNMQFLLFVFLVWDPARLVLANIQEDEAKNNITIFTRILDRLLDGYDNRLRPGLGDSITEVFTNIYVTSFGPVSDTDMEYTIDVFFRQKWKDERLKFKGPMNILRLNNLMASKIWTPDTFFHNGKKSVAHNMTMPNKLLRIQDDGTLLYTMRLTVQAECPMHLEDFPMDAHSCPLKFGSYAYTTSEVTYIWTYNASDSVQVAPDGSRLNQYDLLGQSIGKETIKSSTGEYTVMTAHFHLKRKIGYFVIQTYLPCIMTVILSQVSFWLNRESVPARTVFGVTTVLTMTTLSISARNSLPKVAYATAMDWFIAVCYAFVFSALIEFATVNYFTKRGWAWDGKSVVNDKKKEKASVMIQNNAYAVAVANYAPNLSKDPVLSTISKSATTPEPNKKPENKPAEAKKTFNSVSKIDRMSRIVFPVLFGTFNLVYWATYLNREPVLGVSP
Chain of D(3) dopamine receptor (P35462 whole entry): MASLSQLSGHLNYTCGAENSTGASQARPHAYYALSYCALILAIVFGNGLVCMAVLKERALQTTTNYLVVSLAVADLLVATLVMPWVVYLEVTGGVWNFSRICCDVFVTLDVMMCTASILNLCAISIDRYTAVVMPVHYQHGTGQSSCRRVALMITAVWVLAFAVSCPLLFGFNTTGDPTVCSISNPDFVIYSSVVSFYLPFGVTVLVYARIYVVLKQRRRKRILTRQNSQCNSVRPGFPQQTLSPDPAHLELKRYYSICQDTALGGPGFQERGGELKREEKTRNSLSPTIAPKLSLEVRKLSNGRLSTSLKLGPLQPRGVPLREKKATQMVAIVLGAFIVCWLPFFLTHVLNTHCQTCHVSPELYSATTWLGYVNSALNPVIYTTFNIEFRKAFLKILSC
Chain of Gamma-aminobutyric acid receptor subunit alpha-1 (P62813 whole entry): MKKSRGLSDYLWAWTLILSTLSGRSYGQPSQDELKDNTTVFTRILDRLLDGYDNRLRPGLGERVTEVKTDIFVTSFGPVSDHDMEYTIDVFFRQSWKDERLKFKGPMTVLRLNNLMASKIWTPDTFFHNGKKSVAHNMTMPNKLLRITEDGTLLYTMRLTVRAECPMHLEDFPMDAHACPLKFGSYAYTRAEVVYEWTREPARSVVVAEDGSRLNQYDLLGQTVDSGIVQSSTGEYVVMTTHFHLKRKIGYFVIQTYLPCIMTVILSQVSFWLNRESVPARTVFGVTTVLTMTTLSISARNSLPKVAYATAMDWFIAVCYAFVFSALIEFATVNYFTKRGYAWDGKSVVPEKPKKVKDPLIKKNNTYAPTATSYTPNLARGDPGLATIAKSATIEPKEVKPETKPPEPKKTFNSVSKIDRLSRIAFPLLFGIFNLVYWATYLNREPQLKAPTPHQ

In the case of CC(=O)[C@@]1(O)CC[C@H]2[C@@H]3C=C(C)C4=CC(=O)CC[C@]4(C)[C@H]3CC[C@@]21C, the AC50 (Androgen receptor) is reported as 0.0119 µM, the AC50 [1] is reported as > 30 µM and the AC50 (D(3) dopamine receptor) is reported as > 30 µM. The AC50 (Estrogen receptor) was > 30 µM, the AC50 [2] was > 30 µM and the AC50 [3] was > 30 µM. For the same compound, the AC50 [4] was > 30 µM and the AC50 [5] was > 30 µM.

In the case of CC(C)(C)N1CCC(c2ccccc2)(c2ccccc2)CC1 [BUDIPINE], the AC50 (Androgen receptor) is reported as > 30 µM, the AC50 [1] is reported as > 30 µM and the AC50 (D(3) dopamine receptor) is reported as > 30 µM. The AC50 (Estrogen receptor) was > 30 µM, the AC50 [2] was > 30 µM and the AC50 [3] was > 30 µM. For the same compound, the AC50 [4] was > 30 µM and the AC50 [5] was > 30 µM.

For NC1CCN(c2c(F)cc3c(=O)c(C(=O)O)cn(C4CC4)c3c2Cl)C1 (stereo not drawn) [CLINAFLOXACIN], the AC50 (Androgen receptor) was > 30 µM, the AC50 [1] was > 30 µM and the AC50 (D(3) dopamine receptor) was > 30 µM. The AC50 (Estrogen receptor) was > 30 µM, the AC50 [2] was > 30 µM and the AC50 [3] was > 30 µM. For the same compound, the AC50 [4] was > 30 µM and the AC50 [5] was > 30 µM.

CCOc1ccccc1C(N)=O [ETHENZAMIDE] was tested, and the AC50 (Androgen receptor) was > 30 µM, the AC50 [1] was > 30 µM and the AC50 (D(3) dopamine receptor) was > 30 µM. For the same compound, the AC50 (Estrogen receptor) was > 30 µM, the AC50 [2] was > 30 µM and the AC50 [3] was > 30 µM. For the same compound, the AC50 [4] was > 30 µM and the AC50 [5] was > 30 µM.

With CCOC(=O)/C=C1\SC(N2CCCCC2)C(=O)N1C (stereo not drawn) [ETOZOLIN] the AC50 (Androgen receptor) was > 30 µM, the AC50 [1] was > 30 µM and the AC50 (D(3) dopamine receptor) was > 30 µM. The AC50 (Estrogen receptor) was > 30 µM, the AC50 [2] was > 30 µM and the AC50 [3] was > 30 µM. For the same compound, the AC50 [4] was > 30 µM and the AC50 [5] was > 30 µM.

In the case of CCCCOC(=O)C(=O)[C@H]1[C@H](C)C[C@H]2[C@@H]3C[C@H](F)C4=CC(=O)C=C[C@]4(C)[C@H]3[C@@H](O)C[C@@]21C [FLUOCORTIN BUTYL], the AC50 (Androgen receptor) is reported as 0.316 µM, the AC50 [1] is reported as > 30 µM and the AC50 (D(3) dopamine receptor) is reported as > 30 µM. For the same compound, the AC50 (Estrogen receptor) was > 30 µM, the AC50 [2] was > 30 µM and the AC50 [3] was > 30 µM. The AC50 [4] was > 30 µM and the AC50 [5] was > 30 µM.

N[C@H]1C(O)O[C@H](CO)[C@@H](O)[C@@H]1O (stereo partly drawn) [GLUCOSAMINE] was tested, and the AC50 (Androgen receptor) was > 30 µM, the AC50 [1] was > 30 µM and the AC50 (D(3) dopamine receptor) was > 30 µM. The AC50 (Estrogen receptor) was > 30 µM, the AC50 [2] was > 30 µM and the AC50 [3] was > 30 µM. For the same compound, the AC50 [4] was > 30 µM and the AC50 [5] was > 30 µM.

For C[N+]1(CCCCC[N+]2(C)CCCC2)CCCC1 [PENTOLINIUM], the AC50 (Androgen receptor) was > 30 µM, the AC50 [1] was > 30 µM and the AC50 (D(3) dopamine receptor) was > 30 µM. For the same compound, the AC50 (Estrogen receptor) was > 30 µM, the AC50 [2] was > 30 µM and the AC50 [3] was > 30 µM. For the same compound, the AC50 [4] was > 30 µM and the AC50 [5] was > 30 µM.

Nc1ccc2cc3ccc(N)cc3nc2c1 [PROFLAVINE] was tested, and the AC50 (Androgen receptor) was > 30 µM, the AC50 [1] was > 0.3 µM and the AC50 (D(3) dopamine receptor) was 22.9 µM. The AC50 [2] was > 30 µM, the AC50 [3] was 17.2 µM and the AC50 [4] was > 30 µM. The AC50 [5] was 26.6 µM.

With CCN1CCCC1CNC(=O)c1cc(S(N)(=O)=O)ccc1OC (stereo not drawn) [SULPIRIDE] the AC50 (Androgen receptor) was > 30 µM, the AC50 [2] was > 30 µM and the AC50 [6] was > 30 µM. For the same compound, the AC50 [3] was > 30 µM and the AC50 [4] was > 30 µM.

With OB1OCc2cc(F)ccc21 [TAVABOROLE] the AC50 (Androgen receptor) was > 30 µM, the AC50 [1] was > 30 µM and the AC50 (D(3) dopamine receptor) was > 30 µM. The AC50 (Estrogen receptor) was > 30 µM, the AC50 [2] was > 30 µM and the AC50 [3] was > 30 µM. The AC50 [4] was > 30 µM and the AC50 [5] was > 30 µM.

With CC(C)(C)NCC(O)COc1cccc2c1SCCC2 (stereo not drawn) [TERTATOLOL] the AC50 (Androgen receptor) was > 30 µM, the AC50 [1] was > 30 µM and the AC50 (Estrogen receptor) was > 30 µM. The AC50 [2] was > 30 µM, the AC50 [3] was 0.0569 µM and the AC50 [4] was > 30 µM. The AC50 [5] was 17.3 µM.

For CCOc1ccccc1OCC1CNCCO1 (stereo not drawn) [VILOXAZINE], the AC50 (Androgen receptor) was > 30 µM, the AC50 [1] was > 30 µM and the AC50 (D(3) dopamine receptor) was > 30 µM. For the same compound, the AC50 (Estrogen receptor) was > 30 µM, the AC50 [2] was > 30 µM and the AC50 [3] was 9.72 µM. For the same compound, the AC50 [4] was > 30 µM.
